Experiment [1] deals with CCL17 secretion in peripheral human whole blood. In words: Human Whole Blood (HWB) CCL17 TR-FRET Assay (IL-13 stimulated CCL17 secretion). The class given is cell-based. The procedure, abridged:
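TR-FRET sandwich immunoassay (665/615 nm ratio) read CCL17 in serum from heparinized whole blood after 16 h RT detection. Blood was exposed to compound for 2 h at 37 °C, then to 10 ng/mL IL-13 (final) for 48 h. IC50 from 11-point, 3-fold titrations in duplicate.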
A general note: Time-resolved FRET reads energy transfer from a long-lived donor to a nearby acceptor.

The target in the next experiment is T1, STAT6 (Homo sapiens, UniProt P42226).
T1 construct: stably transfected HaCaT keratinocyte cell line, which expresses NanoLuc luciferase reporter gene under the transcriptional control of the STAT6 responsive promoter; endogenous in cells; host or cells: HaCaT keratinocyte reporter cell line (stably transfected with a NanoLuc reporter)
T1 sequence (P42226 1-847): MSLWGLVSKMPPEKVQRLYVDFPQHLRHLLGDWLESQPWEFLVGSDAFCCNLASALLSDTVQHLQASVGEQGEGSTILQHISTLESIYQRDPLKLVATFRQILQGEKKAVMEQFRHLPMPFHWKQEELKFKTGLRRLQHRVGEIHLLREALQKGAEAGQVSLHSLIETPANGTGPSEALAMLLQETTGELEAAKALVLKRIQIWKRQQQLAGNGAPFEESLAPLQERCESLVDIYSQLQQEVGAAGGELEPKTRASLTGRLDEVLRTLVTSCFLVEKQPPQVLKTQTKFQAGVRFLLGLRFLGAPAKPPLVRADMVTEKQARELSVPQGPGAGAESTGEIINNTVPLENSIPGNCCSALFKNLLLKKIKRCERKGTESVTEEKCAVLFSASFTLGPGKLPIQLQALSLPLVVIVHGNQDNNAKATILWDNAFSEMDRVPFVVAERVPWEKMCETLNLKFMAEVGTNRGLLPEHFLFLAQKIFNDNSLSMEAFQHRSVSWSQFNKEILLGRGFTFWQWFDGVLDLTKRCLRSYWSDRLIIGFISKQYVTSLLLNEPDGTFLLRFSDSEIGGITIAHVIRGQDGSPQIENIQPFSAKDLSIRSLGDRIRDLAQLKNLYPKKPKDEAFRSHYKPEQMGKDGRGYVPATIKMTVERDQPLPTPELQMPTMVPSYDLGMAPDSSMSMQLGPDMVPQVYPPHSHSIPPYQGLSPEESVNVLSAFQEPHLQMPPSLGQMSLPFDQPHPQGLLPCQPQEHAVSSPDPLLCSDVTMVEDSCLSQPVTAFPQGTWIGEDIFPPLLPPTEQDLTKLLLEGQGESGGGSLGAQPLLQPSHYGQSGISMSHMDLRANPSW
Put plainly: STAT6 Reporter Luciferase Assay (IL-13 stimulated HaCaT keratinocyte NanoLuc reporter cells). The class given is cell-based. The conditions noted are these: read-out: Reporter EC50. The procedure, abridged:
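Luminescence from a NanoLuc reporter driven by the STAT6-responsive IL-13Ra2 promoter in HaCaT keratinocytes serves as the read-out. Compounds are given 2 h before a 4 h stimulation with 0.12 nM IL-13.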

[2] abbreviates: human whole blood, IL-13 stimulated, 48 hours.
The mark [3] stands for this setting: IL-13 stimulated HaCaT STAT6 NanoLuc reporter cells.
Where [4] appears, read: Homo sapiens, 48 h, human whole blood, IL-13 stimulated.
The mark [5] stands for this setting: Homo sapiens, 48 h, inhibition of CCL17 secretion in human whole blood, 10 ng/mL IL13, 48 hours.
[6] abbreviates: STAT6 NanoLuc luciferase reporter, IL-13 stimulated HaCaT keratinocyte cells.

Like-named read-outs stand apart in the source and are kept apart here. A value given as a limit tells only on which side of the number the result lay.

On to `CN(C)C(=O)Nc1ccc(CNC(=O)c2nn(C3CCOC3)c3c2CN(c2ccc(C(=O)N(C)C)cn2)CC3)cc1` (single isomer, unassigned) [Example 190, rel-(R or S)-5-(5-(dimethylcarbamoyl)pyridin-2-yl)-N-(4-(3,3-dimethylureido)benzyl)-1-(tetrahydrofuran-3-yl)-4,5,6,7-tetrahydro-1H-pyrazolo[4,3-c]pyridine-3-carboxamide], for which the IC50 – broadly, the concentration at which inhibition is half-maximal – in experiment [1] (setting [2]) is 38 nM. Also, the EC50 (as a rule, the concentration at which the effect is half-maximal) on STAT6 (setting [3]) was 20 nM.

The compound `CCC1CN(c2ccc(C(=O)N(C)C)cn2)Cc2c(C(=O)NCc3ccc(NC(=O)N(C)C)cc3)nn(CC)c21` (single isomer, unassigned) [Example 312, rel-(R or S)-5-(5-(dimethylcarbamoyl)pyridin-2-yl)-N-(4-(3,3-dimethylureido)benzyl)-1,7-diethyl-4,5,6,7-tetrahydro-1H-pyrazolo[4,3-c]pyridine-3-carboxamide] came in with an IC50 in experiment [1] (setting [2]) of 163 nM. Besides, on STAT6 (setting [3]), the EC50 worked out at 10 nM.

Take `CC(C)n1nc(C(=O)NCc2ccc(NC(=O)N(C)C)cc2)c2c1[C@@H](C)[C@H](C)N(c1ncc(C(=O)N(C)C)cn1)C2` (single isomer, unassigned) [Example 449]: half-maximal inhibition in experiment [1] (setting [4]) (IC50) required 4 nM. Besides, the EC50 on STAT6 (setting [3]) turned out to be 0.2 nM.

In experiment [1] (setting [4]), `CCn1nc2c(c1C(=O)NCc1ccc(NC(=O)N(C)C)cc1)CN(c1ccc(C(=O)N(C)C)cn1)[C@H](C)[C@@H]2C` (racemic) [Example 314, rac-(6R,7S)-5-(5-(dimethylcarbamoyl)pyridin-2-yl)-N-(4-(3,3-dimethylureido)benzyl)-2-ethyl-6,7-dimethyl-4,5,6,7-tetrahydro-2H-pyrazolo[4,3-c]pyridine-3-carboxamide] came in with an IC50 of 6850 nM. In addition, the EC50 on STAT6 (setting [3]) was 1070 nM.

Regarding `CC(C)n1nc(C(=O)NCc2ccc(NC(=O)N(C)C)cc2)c2c1[C@@H](C)CN(c1ncc(C(=O)N(C)C)cn1)C2` [Example 127], in experiment [1] (setting [5]), the IC50 came out at 4 nM. The EC50 on STAT6 (setting [6]) was found to be 1 nM.

`CC(C)n1nc(C(=O)NCc2ccc(NC(=O)N(C)C)cc2)c2c1CCN(c1ccc(N3CCN(C)C3=O)cn1)C2` [Example 60, N-(4-(3,3-dimethylureido)benzyl)-1-isopropyl-5-(5-(3-methyl-2-oxoimidazolidin-1-yl)pyridin-2-yl)-4,5,6,7-tetrahydro-1H-pyrazolo[4,3-c]pyridine-3-carboxamide] displayed an IC50 in experiment [1] (setting [5]) of 910 nM. Also, the EC50 on STAT6 (setting [6]) came to 32 nM.

The compound `CC(C)n1nc(C(=O)NCc2ccc(NC(=O)NC3CCC3)cc2)c2c1CCN(c1ccc(C(=O)N(C)C)cn1)C2` [Example 157, N-(4-(3-cyclobutylureido)benzyl)-5-(5-(dimethylcarbamoyl)pyridin-2-yl)-1-isopropyl-4,5,6,7-tetrahydro-1H-pyrazolo[4,3-c]pyridine-3-carboxamide] showed an IC50 in experiment [1] (setting [5]) of 535 nM. Besides, the EC50 at STAT6 (setting [6]) came out at 8 nM.

As to `CC(C)n1nc(C(=O)NCc2ccc(NC(=O)N3CCC4(CC3)CNC4)cc2)c2c1[C@@H](C)CN(c1ccc(C(=O)N(C)C)cc1)C2` [Example 623, (S)-N-(4-(2,7-diazaspiro[3.5]nonane-7-carboxamido)benzyl)-5-(4-(dimethylcarbamoyl)phenyl)-1-isopropyl-7-methyl-4,5,6,7-tetrahydro-1H-pyrazolo[4,3-c]pyridine-3-carboxamide], inhibition in experiment [1] (Homo sapiens, 48 h, human whole blood, 10 ng/mL IL13, 48 hours) was half-maximal at 37 nM (IC50). For the same compound, the EC50 at STAT6 (setting [3]) was 13 nM.

In experiment [1] (setting [5]), `CC(C)n1nc(C(=O)NCc2ccc(NC(=O)N3CC(N(C)C)C3)cc2)c2c1CCN(c1ccc(C(=O)N(C)C)cn1)C2` [Example 141, N-(4-(3-(dimethylamino)azetidine-1-carboxamido)benzyl)-5-(5-(dimethylcarbamoyl)pyridin-2-yl)-1-isopropyl-4,5,6,7-tetrahydro-1H-pyrazolo[4,3-c]pyridine-3-carboxamide] had an IC50 of 78 nM. Moreover, the EC50 at STAT6 (setting [6]) is 22 nM.

`CC(C)n1nc(C(=O)NCc2ccc(NC(=O)N(C)C)cc2)c2c1CCN(c1ccc(C3CCCCO3)cn1)C2` (racemic) [Example 339, rac-(R)-N-(4-(3,3-dimethylureido)benzyl)-1-isopropyl-5-(5-(tetrahydro-2H-pyran-2-yl)pyridin-2-yl)-4,5,6,7-tetrahydro-1H-pyrazolo[4,3-c]pyridine-3-carboxamide] gave an IC50 in experiment [1] (setting [4]) of over 23100 nM. Besides, the 50% effective concentration (EC50) on STAT6 (setting [3]) worked out at 6550 nM.

In the case of `Cc1ccc(-c2ccc(CNC(=O)c3nn(C(C)C)c4c3CN(c3ccc(C(=O)N(C)C)cc3)C[C@@H]4C)cc2)nn1` [Example 727, (S)-5-(4-(dimethylcarbamoyl)phenyl)-1-isopropyl-7-methyl-N-(4-(6-methylpyridazin-3-yl)benzyl)-4,5,6,7-tetrahydro-1H-pyrazolo[4,3-c]pyridine-3-carboxamide], in experiment [1] (Homo sapiens, 48 h, human whole blood, IL-13 10 ng/mL), the IC50 came out at 383 nM. Besides, the EC50 at STAT6 (setting [3]) stood at 11 nM.

The compound `CC(CC#N)n1nc(C(=O)NCc2ccc(NC(=O)N(C)C)cc2)c2c1CCN(c1ccc(C(=O)N(C)C)cn1)C2` (single isomer, unassigned) [Example 347, rel-(R or S)-1-(1-cyanopropan-2-yl)-5-(5-(dimethylcarbamoyl)pyridin-2-yl)-N-(4-(3,3-dimethylureido)benzyl)-4,5,6,7-tetrahydro-1H-pyrazolo[4,3-c]pyridine-3-carboxamide] gave an IC50 in experiment [1] (setting [2]) of 127 nM. In addition, the EC50 at STAT6 (setting [3]) amounted to 83 nM.

Take `CN(C)C(=O)Nc1ccc(CNC(=O)c2nn(C3CC3)c3c2CN(c2ccc(-c4nccn4C)cn2)CC3)cc1` [Example 46, 1-cyclopropyl-N-(4-(3,3-dimethylureido)benzyl)-5-(5-(1-methyl-1H-imidazol-2-yl)pyridin-2-yl)-4,5,6,7-tetrahydro-1H-pyrazolo[4,3-c]pyridine-3-carboxamide]: in experiment [1] (setting [5]), the IC50 was determined as 110 nM. Moreover, on STAT6 (setting [6]), the EC50 came to 9 nM.

`CC1CN(c2ccc(C(=O)N(C)C)cn2)Cc2c1nn1c2C(=O)N(Cc2ccc(NC(=O)N(C)C)cc2)CC1` (single isomer, unassigned) [Example 281, rel-(R or S)-6-(9-(4-(3,3-dimethylureido)benzyl)-4-methyl-10-oxo-3,4,7,8,9,10-hexahydropyrido[4′,3′:3,4]pyrazolo[1,5-alpyrazin-2(1H)-yl)-N,N-dimethylnicotinamide] registered an IC50 in experiment [1] (setting [2]) of 212 nM. Also, the EC50 on STAT6 (setting [3]) was 17 nM.

The compound `CC(C)Cn1nc(C(=O)NCc2ccc(NC(=O)N(C)C)cc2)c2c1CCN(c1ccc(C(=O)N(C)C)cn1)C2` [Example 279, 5-(5-(dimethylcarbamoyl)pyridin-2-yl)-N-(4-(3,3-dimethylureido)benzyl)-1-isobutyl-4,5,6,7-tetrahydro-1H-pyrazolo[4,3-c]pyridine-3-carboxamide] returned a 50% inhibitory concentration (IC50) in experiment [1] (setting [4]) of 94 nM. The EC50 at STAT6 (setting [3]) was 9 nM.

Consider `COc1ccc2c(n1)CN(C(=O)c1ccc(N3CCc4c(c(C(=O)NCc5ccc(NC(=O)N(C)C)cc5)nn4C(C)C)C3)nc1)CC2` [Example 443, N-(4-(3,3-dimethylureido)benzyl)-1-isopropyl-5-(5-(2-methoxy-5,6,7,8-tetrahydro-1,7-naphthyridine-7-carbonyl)pyridin-2-yl)-4,5,6,7-tetrahydro-1H-pyrazolo[4,3-c]pyridine-3-carboxamide], for which, in experiment [1] (setting [4]), the IC50 is 878 nM. Also, the EC50 at STAT6 (setting [3]) was found to be 11 nM.

For the origin of these results see patent US20250320213A1, “Nitrogen-Containing Heterocyclic Compounds” (Pfizer Inc., priority 2024, published 2025).
